Source: article PMC11847541, “Liver fatty acid binding protein FABP1 transfers substrates to cytochrome P450 4A11 for catalysis” (The Journal of Biological Chemistry, 2025)

Molecular target: T1, DAUDA–FABP1 (Homo sapiens, UniProt P07148)
T1 construct: GST (N, cleaved yes); made in house; host or cells: Escherichia coli DH5α
T1 sequence (P07148 with tags, fused parts or gaps): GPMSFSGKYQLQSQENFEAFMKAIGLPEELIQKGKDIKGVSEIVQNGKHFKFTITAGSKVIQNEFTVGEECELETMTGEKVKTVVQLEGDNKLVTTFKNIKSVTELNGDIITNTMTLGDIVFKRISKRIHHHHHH
Test: Stopped-flow kinetics of palmitate binding to DAUDA–FABP1
Procedure: As mentioned previously, palmitate was selected to measure binding kinetics to DAUDA–FABP1 because of the low Kd observed with the protein (Fig. 5D, Table 1). When a ligand binds to DAUDA-bound FABP1, DAUDA is displaced (potentially to the second ligand-binding site, forming a ternary complex; Figure 2, Figure 5 and Figure 2, Figure 5A) and attenuates the fluorescence of the system (Fig. 5). Taking advantage of this phenomenon, we preincubated FABP1 (0.5 μM) with DAUDA (0.5 μM) to form the fluorescent complex. This complex was then rapidly mixed with palmitate (0.5 μM to 25 μM), and the attenuation of fluorescence was monitored as palmitate binds and displaces DAUDA. The data were fit to double exponential equations, and the rate of initial binding was not observed to vary with palmitate concentration (Fig. 7). A kon value (k5) of 2.3 ± 0.2 × 10^7 M^−1 s^−1 was calculated from the data (Fig. 7A).
Figure 7 Kinetics of binding of palmitate to FABP1. A stoichiometric mixture of DAUDA and FABP1 (0.5 μM) was rapidly combined with (A) 0.5 μM, (B) 5 μM, (C) 12.5 μM, and (D) 25 μM palmitate, and the attenuation of fluorescence (λex = 335 nm, λem > 420 nm) was monitored over time (as FD → FDS, Fig. 5A). The plots were fit to double exponential equations, and the following rate constants for each phase were extracted: A, k1 11 ± 1 s^−1, k2 0.04 ± 0.003 s^−1; B, k1 16± 1s^−1, k2 0.017 ± 0.004 s^−1; C, k1 14 ± 1 s^−1, k2 0.05 ± 0.01 s^−1; D, k1 13 ± 1 s^−1, k2 0.07 ± 0.01 s^−1. Each trace corresponds to ≥6 averaged replicate traces. DAUDA, 11-dansylaminoundecanoic acid; FABP1, fatty acid binding protein.
The kon determination of FABP1 with palmitate was done in the same manner as described with DAUDA but with the modification that the solutions mixed in the stopped-flow spectrofluorometer were (A) FABP1 (1 μM) and DAUDA (1 μM, aliquoted from a stock solution prepared in K2CO3 [50 mM], see “Preparation of DAUDA stock solutions”) and (B) palmitate (1–50 μM, aliquoted from a stock solution prepared in K2CO3 [50 mM]). Both mixing solutions (2 ml) were prepared in potassium phosphate buffer (100 mM, pH 7.4). The data collection, processing, and analysis proceeded via the same steps described earlier. The only difference in interpretation is that the signal (binding of palmitate) displaces DAUDA in the FABP1-binding site, so we observe an attenuation of fluorescence.

k1 (fast phase), palmitate binding to DAUDA–FABP1 (0.5 μM palmitate): 11 ± 1 s⁻¹
k2 (slow phase), palmitate binding to DAUDA–FABP1 (0.5 μM palmitate): 0.04 ± 0.003 s⁻¹
k1 (fast phase), palmitate binding to DAUDA–FABP1 (5 μM palmitate): 16 ± 1 s⁻¹
k2 (slow phase), palmitate binding to DAUDA–FABP1 (5 μM palmitate): 0.017 ± 0.004 s⁻¹
k1 (fast phase), palmitate binding to DAUDA–FABP1 (12.5 μM palmitate): 14 ± 1 s⁻¹
k2 (slow phase), palmitate binding to DAUDA–FABP1 (12.5 μM palmitate): 0.05 ± 0.01 s⁻¹
k1 (fast phase), palmitate binding to DAUDA–FABP1 (25 μM palmitate): 13 ± 1 s⁻¹
k2 (slow phase), palmitate binding to DAUDA–FABP1 (25 μM palmitate): 0.07 ± 0.01 s⁻¹
kon (DAUDA and FABP1 0.5 μM each, read-out: kon of palmitate to DAUDA–FABP1 (k5)): 2.3e+07 M⁻¹ s⁻¹
Structure (SMILES): CCCCCCCCCCCCCCCC(=O)O [Palmitate (C16), palmitate]
